Data: ChEMBL document CHEMBL5512613, “Design and synthesis of novel 3-amino-5-phenylpyrazole derivatives as tubulin polymerization inhibitors targeting the colchicine-binding site” (Eur J Med Chem, 2024)
The source made the active and inactive calls. No cut-off for these calls is given here.

Experiments:
HUVEC [1] = test: Anti-vascular activity in human HUVEC cells assessed as reduction in length of capillary-like tubules incubated for 6 hrs by Matrigel based inverted fluorescence microscopy; format: functional, cell-based; conditions: dose 6.25-50 nM
MCF7 [2] = test: Induction of apoptosis in human MCF7 cells assessed as increase in cleaved caspase-3 protein expression at 6.25 to 50 nM incubated for 24 hrs by western blot analysis; format: functional, cell-based; conditions: dose 6.25-50 nM
MCF7 [3] = test: Induction of cell cycle arrest in human MCF7 cells assessed as proportion of cells at G2 phase at 25 nM incubated for 12 hrs by PI staining based flow cytometry (reference value: 14.4%); format: functional
MCF7 [4] = test: Induction of apoptosis in human MCF7 cells assessed as increase in Bax protein expression at 6.25 to 50 nM incubated for 24 hrs by western blot analysis; format: functional, cell-based; conditions: dose 6.25-50 nM
MCF7 [5] = test: Induction of cell cycle arrest in human MCF7 cells assessed as proportion of cells at G1 phase at 6.25 nM incubated for 24 hrs by PI staining based flow cytometry (reference value: 64.5%); format: functional
MCF7 [6] = test: Induction of cell cycle arrest in human MCF7 cells assessed as proportion of cells at G2 phase at 12.5 nM incubated for 24 hrs by PI staining based flow cytometry (reference value: 14.4%); format: functional
MCF7 [7] = test: Induction of cell cycle arrest in human MCF7 cells assessed as proportion of cells at G2 phase at 25 nM incubated for 24 hrs by PI staining based flow cytometry (reference value: 14.4%); format: functional
A549 [8] = test: Antiproliferative activity against human A549 cells assessed as inhibition of cell growth incubated for 48 hrs by MTT assay; format: functional, cell-based; conditions: A549, 48 h
MCF7 [9] = test: Induction of cell cycle arrest in human MCF7 cells assessed as proportion of cells at G1 phase at 12.5 nM incubated for 24 hrs by PI staining based flow cytometry (reference value: 64.5%); format: functional
MCF7 [10] = test: Induction of cell cycle arrest in human MCF7 cells assessed as increase in cyclin B1 protein expression at 6.25 to 50 nM incubated for 24 hrs by western blot analysis; format: functional, cell-based; conditions: dose 6.25-50 nM
MCF7 [11] = test: Induction of cell cycle arrest in human MCF7 cells assessed as proportion of cells at S phase at 25 nM incubated for 24 hrs by PI staining based flow cytometry (reference value: 21.1%); format: functional
MCF7 [12] = test: Induction of cell cycle arrest in human MCF7 cells assessed as proportion of cells at G2 phase at 6.25 nM incubated for 24 hrs by PI staining based flow cytometry (reference value: 14.4%); format: functional
MCF7 [13] = test: Induction of cell cycle arrest in human MCF7 cells assessed as proportion of cells at S phase at 25 nM incubated for 6 hrs by PI staining based flow cytometry (reference value: 21.1%); format: functional
MCF7 [14] = test: Induction of apoptosis in human MCF7 cells assessed as increase in cleaved caspase-9 protein expression at 6.25 to 50 nM incubated for 24 hrs by western blot analysis; format: functional, cell-based; conditions: dose 6.25-50 nM
HeLa = test: Antiproliferative activity against human HeLa cells assessed as inhibition of cell growth incubated for 48 hrs by MTT assay; format: functional, cell-based
MCF7 [15] = test: Induction of apoptosis in human MCF7 cells at 50 nM incubated for 12 to 48 hrs by AnnexinV-FITC/PI staining based flow cytometry; format: functional, cell-based; conditions: time 12-48 hrs, TDE = time-dependent effect
MCF7 [16] = test: Antiproliferative activity against human MCF7 cells assessed as inhibition of cell growth incubated for 48 hrs by MTT assay; format: functional, cell-based; conditions: MCF7, 48 h
HT-29 = test: Antiproliferative activity against human HT-29 cells assessed as inhibition of cell growth incubated for 48 hrs by MTT assay; format: functional, cell-based; conditions: HT-29, 48 h
MCF7 [17] = test: Induction of cell cycle arrest in human MCF7 cells assessed as increase in CDK7 protein expression at 6.25 to 50 nM incubated for 24 hrs by western blot analysis; format: functional, cell-based; conditions: dose 6.25-50 nM
MCF7 [18] = test: Induction of apoptosis in human MCF7 cells assessed as increase in Bim protein expression at 6.25 to 50 nM incubated for 24 hrs by western blot analysis; format: functional, cell-based; conditions: dose 6.25-50 nM
Tubulin (Homo sapiens) = Tubulin (Homo sapiens) (UniProt P68371+Q9H4B7+P0DPH7+P68366+Q13509+Q71U36+P04350+Q3ZCM7+P07437+P68363+Q9BQE3+Q6PEY2+Q13885+Q9BVA1+Q9BUF5); test: Displacement of [3H]colchicine from tubulin (unknown origin) at 1 uM incubated for 2 hrs by scinitillation proximity assay; format: protein-complex assay
[19] = Cytotoxicity against human L02 cells assessed as inhibition of cell growth incubated for 48 hrs by MTT assay; format: toxicity, cell-based
MDA-MB-231 = test: Antiproliferative activity against human MDA-MB-231 cells assessed as inhibition of cell growth incubated for 48 hrs by MTT assay; format: functional, cell-based; conditions: MDA-MB-231, 48 h
MCF7 [20] = test: Antitumor activity against human MCF7 cells xenografted in BALB/c mouse assessed as inhibition of tumor growth by measuring decrease in tumor weight at 5 mg/kg, ip administered every 3 days for 21 days; format: functional; conditions: MCF7, 504 h, time 21 day, read-out: TGI
MCF7 [21] = test: Induction of cell cycle arrest in human MCF7 cells assessed as increase in Cdc25c protein expression at 6.25 to 50 nM incubated for 24 hrs by western blot analysis; format: functional, cell-based; conditions: dose 6.25-50 nM
A549 [22] = test: Inhibition of cell migration in human A549 cells at 2.5 to 10 nM incubated for 12 to 48 hrs by fluorescent inverted microscopy; format: functional, cell-based; conditions: dose 2.5-10 nM, time 12-48 hrs
MCF7 [23] = test: Induction of cell cycle arrest in human MCF7 cells assessed as proportion of cells at S phase at 6.25 nM incubated for 24 hrs by PI staining based flow cytometry (reference value: 21.1%); format: functional
MCF7 [24] = test: Inhibition of colony formation in human MCF7 cells at 5 to 20 nM incubated for 2 weeks in 5% CO2 at 37 degC by crystal violet staining based analysis; format: functional, cell-based; conditions: dose 5-20 nM
MCF7 [25] = test: Induction of cell cycle arrest in human MCF7 cells assessed as proportion of cells at G2 phase at 25 nM incubated for 6 hrs by PI staining based flow cytometry (reference value: 14.4%); format: functional
HUVEC [26] = test: Anti-vascular activity in human HUVEC cells assessed as reduction in number of loops formed at 6.25 to 50 nM incubated for 6 hrs by Matrigel based inverted fluorescence microscopy; format: functional, cell-based; conditions: dose 6.25-50 nM
MCF7 [27] = test: Induction of apoptosis in human MCF7 cells at 12.5 to 50 nM incubated for 24 hrs by AnnexinV-FITC/PI staining based flow cytometry; format: functional, cell-based; conditions: dose 12.5-50 nM
MCF7 [28] = test: Induction of cell cycle arrest in human MCF7 cells assessed as proportion of cells at G1 phase at 25 nM incubated for 6 hrs by PI staining based flow cytometry (reference value: 64.5%); format: functional
MCF7 [29] = test: Induction of cell cycle arrest in human MCF7 cells assessed as proportion of cells at S phase at 25 nM incubated for 12 hrs by PI staining based flow cytometry (reference value: 21.1%); format: functional
MCF7 [30] = test: Induction of cell cycle arrest in human MCF7 cells assessed as proportion of cells at G1 phase at 25 nM incubated for 12 hrs by PI staining based flow cytometry (reference value: 64.5%); format: functional

Question: What does the source list for `COc1cc(C(=O)n2nc(N)cc2-c2ccc(C)cc2)cc(OC)c1OC`?
Answer: Activity (HUVEC [1]): Dose-Dependent Effect; Activity (MCF7 [2]): Active; Activity (MCF7 [3]): 62.8%; Activity (MCF7 [4]): Active; Activity (MCF7 [5]): 53.3%; Activity (MCF7 [6]): 39.2%; Activity (MCF7 [7]): 80.2%; IC50 (A549 [8]): 390 nM; Activity (MCF7 [9]): 45.1%; Activity (MCF7 [10]): Active; Activity (MCF7 [11]): 10.65%; Activity (MCF7 [12]): 28.3%; Activity (MCF7 [13]): 22%; Activity (MCF7 [14]): Active; IC50 (HeLa): 110 nM; Activity (MCF7 [15]): Tde; IC50 (MCF7 [16]): 40 nM; IC50 (HT-29): 60 nM; Activity (MCF7 [17]): Active; Activity (MCF7 [18]): Active; inhibition (Tubulin (Homo sapiens)): 68.4%; IC50 at 48 h [19]: 2730 nM; IC50 (MDA-MB-231): 40 nM; inhibition in vivo at 5 mg/kg (MCF7 [20]): 27%; Activity (MCF7 [21]): Active; inhibition (A549 [22]): Dose-Dependent Effect; Activity (MCF7 [23]): 18.4%; inhibition (MCF7 [24]): Active; Activity (MCF7 [25]): 46.7%; Activity (HUVEC [26]): Active; Activity (MCF7 [27]): Dose-Dependent Effect; Activity (MCF7 [28]): 31.3%; Activity (MCF7 [29]): 22.9%; Activity (MCF7 [30]): 14.3%
